Measurements published in US20200206212A1 (Celgene Corporation, priority 2018, published 2020).

Assays:
[1] = system: acute myeloid leukemia (AML) at relapse; settings: administered alone; cited from earlier work
physchem = format: physicochemical; settings: for solubility: organic solvent or mixture, thermodynamic from solid
Description: FA/AcOH mixtures ranging from 100% FA to 70%/30% FA/AcOH in decrements of 10% were used.
Solutions of FA/AcOH at ratios described in Table 39 were used. […] Samples were taken at each time point (4, 24, and 48 h) and assayed (36 total). Samples were spun down briefly (500 g, 4 min) to precipitate all solids and 25 μL of solution were taken for assay.

[2] = format: physicochemical
Source text: “Compound 1” or “API” in the Examples herein refers to polymorph Form C of 2-(4-chlorophenyl)-N-((2-(2,6-dioxopiperidin-3-yl)-1-oxoisoindolin-5-yl)methyl)-2,2-difluoroacetamide. […] Other forms of Compound 1, including Form A, Form B, Form D, Form F and amorphous form can be used in the formulations provided herein.

Compound | response in treating acute myeloid leukemia (AML) at relapse [1] | solubility across FA/AcOH mixtures (physchem) | solubility (physchem; 40 °C) [mg/mL] | solubility (physchem; 60 °C) [mg/mL] | Hygroscopicity [2] | Solid State Stability [2] | major degradation pathway [2] | Solution Stability ([2]; pH 5)
CT-011: anti-PD-1 antibody, a humanized antibody | failed to show response |  |  |  |  |  |  | 
O=C1CCC(N2Cc3cc(CNC(=O)C(F)(F)c4ccc(Cl)cc4)ccc3C2=O)C(=O)N1 (centres unmarked) [Compound 1, 2-(4-chlorophenyl)-N-((2-(2,6-dioxopiperidin-3-yl)-1-oxoisoindolin-5-yl)methyl)-2,2-difluoroacetamide] |  | maximized in 100% FA | > 250 | > 250 | Not hygroscopic | DS is physically stable under all storage conditions. | Hydrolysis | not stable in solution at pH of 5.0 or above
